Data published in patent US20260306421A1, “SYSTEMS AND METHODS FOR TRANSDERMAN PATCH DELIVERY” (VITAMAX PATCH WHOLESALER LLC, priority 2022, published 2026).
Blank lines part the entries; values can stand above or below the molecule they belong to.

Assays:
[1] = Franz cell porcine skin permeation and deposition of iron from solutions; format: in vitro ADME; conditions: PG solution, 24 h
Description: The permeation of the iron complexes from the formulations into and across porcine skin mounted on Franz cells with a receiver fluid was tested (FIG. 4). This was based on the principles of the FDA, SUPAC-SS guidelines. The developed colorimetric assay method was used for iron quantification.
(§1) On the day of the experiment, the skin was defrosted. For the full thickness studies, the subcutaneous fat removed (2.5 mm thick) and for the dermatomes skin studies the tissued was dermatomed to a 1 mm thickness. The tissue was cut into the appropriate size sections (2.19±0.21 cm^2) and mounted between donor and receiver compartments of Franz diffusion cells with the SC facing the donor compartment. Each cell was sealed using parafilm and 12 mm magnetic stir bars were placed into the receiver compartment. The receiver compartment was filled with the desired receiver solution and the Franz cells were placed in a stirring water bath at 37° C. Cells were allowed to equilibrate for 30 min after which the receiver fluid using was mixed using a syringe and the “zero hour” sample was withdrawn from the arm and compensate with the same volume of fresh pre-warmed solution. Following zero-hour sampling, the donor solution was placed in the donor compartment and covered with parafilm. Samples were withdrawn and compensated with fresh receiver solution at set time intervals for a 24 h duration. The iron in each sample was quantified using the method specified in Section 2.2.2.1. […] There was no matrix interference noted in the assay. […] For iron maltol a 80:20 PG:water receiver was used along with a complementary calibration for iron assay (iron chloride in PG:water). The donor solution for the iron maltol made at pH 1.6 was 200 μL of 100 mg/mL complex in Transcutul®, for iron maltol made at pH 4 the donor solution was 200 μL of 23 mg/mL complex in PG and for iron maltol made at pH 4 the donor solution was 150 μL of 16 mg/mL complex in 7.5:1.5:1:1 water:PG:dimethicone:ethanol.
Once the permeation studies were completed the donor solutions were collected into bottles containing the extraction solution. This was followed by skin surface cleaning using four cotton buds, the first two were wetted by the extraction fluid and the second two were used dry. Then two tape striping procedures were performed using 2 tapes to remove any iron on the skin surface with the tape being added to the donor solution and cotton buds in the donor recover vial. For the full skin thickness skin, the Stratum corneum, the dermal and the epidermal layers were isolated in the same way as the recovery method (Section 2.3.2.1). Extraction fluid (50:50 PBS:ethanol) was then added to the tissues, 4 mL to the Stratum corneum, and 2 mL for each of the epidermis and dermis. For the dermatomed skin the whole skin section was chopped up and placed in a 2 mL extraction fluid (ethanol).
The Stratum corneum samples were placed on vibrating plate for a minimum of 2 h to extract the iron and then vortexed prior assay. The epidermis, dermis or dermatomed samples however were incubated with the extraction fluid for 1 h after which were transferred to Eppendorf tubes, one stainless steel 5 mm bead was added and the samples were loaded into the TissuLyser II (Qiagen, Germany) for 30-15 min at 30 Hz. The samples were then centrifuged (5 min at 13,000 rpm) and supernatant assayed.

[2] = Iron complex adhesive compatibility and loading screen; format: physicochemical
Description: Pre-formulation studies were performed to determine the compatibility of the iron complexes with a range of transdermal patch adhesives (Table 15).
The compatibility of the complexes with the patch adhesives was assessed by mixing and visually checking the clarity of the mixture.
In the adhesives that were computable with the iron complexes the maximum drug loading of the complexes in the adhesive following solvent evaporation was determined. This was achieved by mixing the drug, adhesive and co-solvents until a clear solution was obtained at different drug:adhesive ratios and placing few drops of the mixture onto the patch backing sheet, leaving it to dry for 3-4 h, and examining the formed film on the surface of the backings for evidence of drug crystals.
Following complete drying of the solvents, the adhesive layer was covered by a release liner, compressed, and then cut using 34 mm circular manual die cutter (FIG. 23).

[3] = Visual skin damage / necrosis after iron permeation study; conditions: after 24 h permeation study, porcine skin
From the text: as §1

[4] = Solubility of iron chloride hexahydrate and iron complexes (visual / assayed); format: physicochemical; conditions: visual (*)
Description: Due to the high number of test samples (6 complexes plus the starting material, iron chloride hexahydrate) a visual solubility screen was used to screen the solubility in a range of solvents. […] Quantitative determination was performed by either incubating the complex in excess in the solvent using a shaking 37° C. water bath for 48 h or sonicating it for 2 hours at 40° C. or leaving overnight on a 50° C. hot plate. Once incubation period was completed, the exact solubility in a particular solvent was assayed (using the iron assay) after centrifugation (i.e. assay iron content in the supernatant using the Ferrozine® assay).

[5] = Zinc ethyl maltol reservoir co-solvent solubility screening; format: physicochemical; conditions: for Solubility in PEG400:PEG1000: 3 mL methanol
Description: Pre-formulation studies were completed to optimise the solubility of zinc ethyl maltol using a variety of co-solvents that could be applied to the skin, such as Transcutol and ethanol. Polymers such as PEG 1000, Natrsol M250, and PVP were used to aid the solubilisation process. The compatibility of the complex with the solvents was evaluated by examining the clarity of the mixture. Following the optimisation of the complex solubility, the reservoir patch was developed using the backing layer, drug in solution, and liner release layer. The backing used was 3M™ Scotchpak™ Polyester Backing Film Laminate 9730. Different liner release membranes were investigated including, regenerated cellulose (12-14 k molecular weight cut-off Medical International UK), nylon (0.20 μm, Whatman, UK), and CoTran 9728 (3M, Germany). A 200 μL aliquot of zinc ethyl maltol complex in solution was applied on the liner release membrane, then covered by the backing layer and all layers thermally sealed (HeatPress machine HP230B).
The solution left to evaporate overnight to form a supersaturated solution (Table 4). This solution was then loaded into the reservoir patch.

[6] = Franz cell porcine skin permeation and deposition of zinc from solutions; format: in vitro ADME; design: elemental zinc skin deposition: unit not given here
Description: Porcine skin permeation studies were performed to compare the permeation of zinc chloride and the zinc ethyl maltol complex. The permeation of zinc chloride vs zinc ethyl maltol from PG saturated solutions (zinc chloride and zinc ethyl maltol solutions in PG was 2.45 and 2.10 mg/mL, respectively) and permeation of zinc chloride from PG statured solution vs zinc ethyl maltol from PEG400 saturated solutions were investigated (zinc ethyl maltol in PEG400 100 mg/mL). In addition, the permeation of the zinc ethyl complex from PEG400 saturated solution and PEG400:PEG1000 (8:2% w/w) was compared. For the PEG mixture, the zinc ethyl maltol donor was prepared by dissolving 60 mg of the complex in 3 mL of methanol and 1 mL of 80% w/w PEG400:20% w/w PEG 1000 then added. The solution was left overnight to allow the evaporation of methanol.
Permeation studies were conducted using previously validated Franz cell method based on the principles of the FDA, SUPAC-SS guidelines [FDA (CDER), 1997, Guidance for industry—SUPAC-SS Non-sterile Semisolid Dosage Form, Scale-up and post-approval changes: chemistry, manufacturing, and controls; in vitro release testing and in vivo bioequivalence documentation](FIG. 4). On the day of the experiment, the porcine skin was defrosted and either prepared as full-thickness sheets but removing the fat or dermatome to a 1 mm thickness (Nouvag, AG). The tissue was cut into 34 mm circles to allow an exposure area of 2.19±0.21 cm^2 and positioned between donor and receiver compartments of Franz diffusion cells. Each piece of skin was sealed between the two compartments using parafilm (Bemis Company, Neenah, WI). A 12 mm magnetic stir bar was placed into the receiver compartment of each Franz cell. The receiver compartment was loaded with 50 mM phosphate-buffered saline (pH 7.4). The cell sealing was verified by Franz cell inversion (6 times) and monitoring solvent back diffusion. The temperature of the Franz diffusion was set at 37° C. in a water bath to reach a skin temperature of 32° C. After 1 h equilibration at 37° C. in the water bath, 1 mL of receiver fluid was withdrawn (time point=0 min), and a fresh receiver solution was replaced into the cell to keep the volume consistent. Each formulation (1 mL) was applied in the donor compartment that was then covered with parafilm to avoid evaporation. After 24 h, the receiver fluid was collected and analysed by HPLC.
At the end of the permeation studies, the Franz cells were dismantled. The donor solutions were collected from each cell and transferred into 5-mL glass bottles containing 2 mL of PDCA as extraction fluid. This step was followed by wiping the skin surface and the donor compartment with two wet (wetted with extraction fluid) and then two dry cotton buds. The skin's permeation area was then cut into small pieces by scalpels and placed into a 5 mL glass bottle containing 4 mL of extraction fluid. All skin samples were kept at the bench with extraction fluid for 1 hour. This step was followed by separating each vial's content (cut skin and extraction fluid) into 2 mL Eppendorf tubes that were then loaded in TissuLyser machine for 20 minutes. Samples were then centrifuged for 15 minutes at 13,000 rpm. The content of each Eppendorf tube was filtered using 0.45 µm syringe filters, collected, and analysed by HPLC.

[7] = Zinc ethyl maltol adhesive suitability (solubility/compatibility) screening; format: physicochemical
Description: Pre-formulation studies were performed to determine the compatibility of zinc ethyl maltol with a variety of adhesives that could be used to manufacture a transdermal patch (Table 2). The compatibility of the zinc complexes with the patch excipients was evaluated by examining the clarity of the mixture upon mixing. […] Following patch optimisation, the optimised drug-adhesive solutions were cast in 10×10 cm^2 trays made of the patch backing (3M™ Scotchpak™ Polyester Backing Film Laminate 9730, 3M, Germany). An adequate volume of the adhesive was applied to achieve a target coating level of 8 mg/cm^2 (equivalent to 80 g/m^2). Following complete drying of the solvents, the adhesive layer was covered by an M3 Release liner (SCOTCHPAK 9755), compressed, and then cut using a 34 mm circular manual die cutter (SCP Super Cutting Press).

[8] = Solubility of zinc chloride and zinc complexes (visual / HPLC); format: physicochemical
Description: Accurate measurement of the solubility was then repeated for some of the solvent systems by HPLC. In the HPLC solubility studies, an excess of the test agents was loaded into 2 mL of each test solvent. The solutions were left stirring overnight at 32° C. […] The drug suspensions were then centrifuged, the supernatant diluted, and each sample concentration was measured using HPLC.

[9] = Franz cell porcine skin permeation and deposition of zinc from solutions; format: in vitro ADME; conditions: solution in PEG (6 mg/mL)

total delivered dose [1]: 12 μg/cm^2
compatibility with adhesives [2]: only compatible with DURO-TAK 9301
(maximum) complex loading achieved in adhesive ([2]; methanol stock solution 10 mg/mL): 4%
complex loading achieved in adhesive patch ([2]; methanol stock solution 18 mg/mL): 8.5%
Solubility of complex (visual) ([4]; Chloroform): ≥20 mg/mL Iron ethyl maltol*
Solubility of complex (visual) ([4]; Ethyl acetate): <8 mg/mL Iron ethyl maltol*
Solubility of complex (visual) ([4]; Glycerol): <8 mg/mL Iron ethyl maltol*
Solubility of complex (visual) ([4]; Hexane): <8 mg/mL Iron ethyl maltol*
Solubility of complex (visual) ([4]; Liquid Paraffin): <8 mg/mL Iron ethyl maltol*
Solubility of complex (visual) ([4]; Methanol): ≥20 mg/mL Iron ethyl maltol*
Solubility of complex (visual) ([4]; Miglyol): <8 mg/mL Iron ethyl maltol*
Solubility of complex (visual) ([4]; Oleic acid): <8 mg/mL Iron ethyl maltol*
Solubility of complex (visual) ([4]; Transcutul): <8 mg/mL Iron ethyl maltol*
Solubility of complex (visual) ([4]; Triaceten): <8 mg/mL Iron ethyl maltol*
SMILES: CCc1occc(=O)c1[O-].CCc1occc(=O)c1[O-].CCc1occc(=O)c1[O-].[Fe+3] [Iron ethyl maltol, iron ethyl maltol]
skin damage / necrosis [3]: did not cause any visible skin damage

Solubility in PEG400:PEG1000 ([5]; 60 mg, 1 mL PEG400:PEG1000 (2% w/w:8% w/w)): Not soluble
Solubility in PEG400:PEG1000 ([5]; 60 mg, 1 mL PEG400:PEG1000 (6% w/w:4% w/w)): Not soluble
Solubility in PEG400:PEG1000 ([5]; 60 mg, 1 mL PEG400:PEG1000 (8% w/w:2% w/w)): Soluble
Solubility in PEG400:PEG1000 ([5]; 80 mg, 1 mL PEG400:PEG1000 (6% w/w:4% w/w)): Not soluble
Solubility in PEG400:PEG1000 ([5]; 80 mg, 1 mL PEG400:PEG1000 (8% w/w:2% w/w)): Not soluble
Solubility in PEG400:PEG1000 ([5]; 100 mg, 1 mL PEG400:PEG1000 (6% w/w:4% w/w)): Not soluble
Solubility in PEG400:PEG1000 ([5]; 100 mg, 1 mL PEG400:PEG1000 (8% w/w:2% w/w)): Not soluble
Solubility in PEG400:PEG1000 ([5]; 120 mg, 1 mL PEG400:PEG1000 (6% w/w:4% w/w)): Not soluble
Solubility in PEG400:PEG1000 ([5]; 120 mg, 1 mL PEG400:PEG1000 (8% w/w:2% w/w)): Not soluble
maximum solubility of zinc ethyl maltol complex ([5]; PEG400): 30 mg/mL
elemental zinc achieved in supersaturated solution ([5]; supersaturated solution based on PEG400/PG6000): 28.8 mg/mL
transdermal permeation of elemental zinc ([6]; 1 mL PG solution, 24 h): 4.85 µg/cm^2
permeation of elemental zinc ([6]; solution in PG ([…])): 41 μg/cm^2
daily dose delivered by the solution ([6]; solution, extrapolated): approximately 2 mg
elemental zinc passed through the skin ([6]; supersaturated solution (conclusions)): 237.93 μg/cm^2
elemental zinc permeated through the skin ([6]; supersaturated solution in PEG400:PEG1000 (8% w/w:2% w/w), 24 h): 238 µg/cm^2
elemental zinc skin deposition ([6]; vehicle PEG400, 24 h): 44.84
transdermal permeation of elemental zinc ([6]; vehicle PEG400, 24 h): 174 µg/cm^2
transdermal permeation compared to zinc chloride ([6]; zinc ethyl maltol in PEG400 vs zinc chloride in PG): 4.8 fold
Solubility in DURO-TAK 9301 ([7]; drug loading 5%, no Transcutol): Not Soluble
Solubility in DURO-TAK 9301 ([7]; drug loading 7.4%, Transcutol 12.5 mg): Soluble
Solubility in DURO-TAK 9301 ([7]; drug loading 7.5%, no Transcutol): Not Soluble
Solubility in DURO-TAK 9301 ([7]; drug loading 10%, no Transcutol): Not Soluble
Solubility in DURO-TAK 9301 ([7]; drug loading […], no Transcutol): Not Soluble
Elemental zinc solubility evaluated by HPLC ([8]; solvent PEG400): 6.6 mg/mL
Elemental zinc solubility evaluated by HPLC ([8]; solvent PG): 2.1 mg/mL
Elemental zinc solubility evaluated by HPLC ([8]; solvent Transcutol): 6.0 mg/mL
permeation of elemental zinc [9]: 173.6 μg/cm^2
SMILES: CCc1occc(=O)c1[O][Zn][O]c1c(CC)occc1=O [Zinc Ethyl Maltol, zinc ethyl maltol]
